Where “and” joins values, the source holds several entries; their conditions need not be identical. Equal entries are not always repeated.
What was measured:
[1] = tested on: CFA-induced inflammatory pain; experiment: CFA-induced inflammatory pain model, paw pressure test; format: in vivo, male Sprague-Dawley rats; conditions: meloxicam 3 mg/kg and/or micronized PEA 10 mg/kg, single administration per os on day 7 after CFA; T0-T60; p = 0.1405 (meloxicam), p = 0.9588 (PEA), p < 0.0001 (combination)
Source text: In the in vivo experimentation, male Sprague-Dawley rats (200-250 g) (Envigo, Varese, Italy) fed "ad libitum" and housed in cages with a controlled sleep/wake cycle were used.
Before the start of the study, the animals were subjected to a 1-week acclimatization period at the Center for Laboratory Animal Sheltering (Ce.S.A.L.) of the University of Florence, following all experimental procedures and protocols compliant with the principles of care and welfare of laboratory animals approved by the Italian Ministry of Health (Italian Legislative Decree 2014/26), European directives (EU Directive 2010/63) and the ARRIVE guidelines. […]
All animals were subjected to the paw pressure test at the level of the ipsilateral paw, performed before (T0) or after 15, 30, 45 and 60 minutes after the single administration of the treatment (T15, T30, T45 and T60, respectively). In particular, the nociceptive threshold was calculated with an analgesiometer (Ugo Basile, Varese, Italy) by applying an increasing pressure at constant speed (32 g/s) by means of a non-pointed conical support on the dorsal surface of the ipsilateral paw with respect to the injection of CFA (or vehicle). […]
The AUC was analyzed by a two-way factor analysis of variance (2x2 ANOVA), after plotting the mean values, according to the procedure shown by Slinker BK. […] The values were expressed as mean ± standard error mean (SEM). […]

[2] = tested on: inflammatory pain induced by Carrageenan; experiment: Carrageenan-induced inflammatory pain model, Von Frey test; format: in vivo, male Sprague-Dawley rats; conditions: PEA 3 mg/kg and/or MLX 0.05 mg/kg orally 30 minutes before CAR; 3 and 5 hours after CAR injection; combination p=0.0084 and p=0.0004 vs vehicle
Experimental: All analyses were performed using SAS software, version 9.4 (SAS Institute, Cary, NC, USA). P value < 0.05 was considered significant.

[3] = tested on: LPS-induced inflammatory pain; experiment: LPS-induced inflammatory pain model, paw pressure test; format: in vivo, Male Sprague-Dawley rats; conditions: 60 min after LPS
Experimental: Male Sprague-Dawley rats were housed in groups of four, in 26x41 cm cages, at a temperature of 23±1°C, with a 12-hour circadian cycle, and water/food "ad libitum" (standard diet). LPS (10 µg in 50 µl of 0.9% NaCl, Sigma-Aldrich) was injected into the plantar surface of the hind paw of the rat following isoflurane anesthesia. Control animals were treated with vehicle alone (0.9% NaCl). Ten minutes before the LPS injection, the compounds to be tested or the vehicle alone (1% CMC) were administered orally, according to the following treatment groups (N=8 where not otherwise specified): • CTRL (healthy animals injected with 0.9% NaCl) • VEIC (animals injected with LPS and treated with vehicle, N=9) • MLX30 (animals injected with LPS and treated with meloxicam 30 mg/kg) • MLX3 (animals injected with LPS and treated with meloxicam 3 mg/kg) • PEA10 (animals injected with LPS and treated with PEA 10 mg/kg) • PEA10+MLX3 (animals injected with LPS and treated with PEA 10 mg/kg + meloxicam 3 mg/kg) • PEA5 (animals injected with LPS and treated with PEA 5 mg/kg) • PEA5 + MLX3 (animals injected with LPS and treated with PEA 5 mg/kg + meloxicam 3 mg/kg).
Inflammatory pain induced by LPS injection was measured by paw pressure test. Briefly, before and sixty min after LPS injection, increasing pressure at a constant rate (32 g/s) was applied to the ipsilateral paw of the rat using a non-sharp conical support. […] An analgesimeter (Ugo Basile, Varese) was used for this purpose. The results were expressed in terms of analgesic potency, defined as percentage inhibition (mean ± SEM) of inflammatory pain induced by LPS and calculated according to the formula: 100*(treatm-VEIC)/(CTRL-VEIC).
The results were analyzed via Generalized Linear Model (GLM) followed by post-hoc analysis based on Tukey-Kramer correction for multiple comparisons. […] In order to verify whether the effect of PEA and meloxicam was synergistic, it was analyzed whether the extent of the inhibition of inflammatory pain by LPS was greater for the association of the two substances compared to the substances used individually. […] All analyses were performed using SAS software, version 9.4 (SAS Institute, Cary, NC, USA). P value < 0.05 was considered significant.

[4] = administered in ultra-micronized form; Nestmann Food Sci Nutr. 2016; cited from earlier work

SMILES | inflammatory pain tolerance threshold (paw pressure test), effect with respect to CFA [1] | analgesic effect vs vehicle (Von Frey test, paw retraction) [2] | analgesic potency, percentage inhibition of inflammatory pain induced by LPS (media) ([3]; PEA 5 mg/kg orally 10 min before LPS) | analgesic potency, percentage inhibition of inflammatory pain induced by LPS (media) ([3]; PEA 10 mg/kg orally 10 min before LPS) | effect on the LPS-induced drop of the nociceptive threshold vs LPS vehicle ([3]; meloxicam at 3 mg/kg and 30 mg/kg, PEA at 5 mg/kg and 10 mg/kg, alone or associated with low-dose meloxicam, p<0.0001 for all comparisons) | dose up to which free of acute and sub-chronic toxicity [4] [mg/kg daily] | analgesic potency, percentage inhibition of inflammatory pain induced by LPS (media) ([3]; meloxicam 3 mg/kg orally 10 min before LPS, listed as MLX) | analgesic potency, percentage inhibition of inflammatory pain induced by LPS (media) ([3]; meloxicam 30 mg/kg orally 10 min before LPS, listed as MLX)
CCCCCCCCCCCCCCCC(=O)NCCO [PEA, N-palmitoylethanolamide] | no significant effect | no analgesic effect significantly different from the vehicle | 26,46% and 26,5% | 54,24% and 54,2% | significantly counteracted the pro-algic effect of LPS | ≥ 1000 | – | –
Cc1cnc(NC(=O)C2=C(O)c3ccccc3S(=O)(=O)N2C)s1 [meloxicam] | no significant effect | – | – | – | – | – | 46,12% and 46,1% | 50,49% and 50,5%
